In patent publication US20260356819A1, “OXOISOINDOLINYL-SUBSTITUTED […] DERIVATIVE AND USE THEREOF” (GLUETACS THERAPEUTICS (SHANGHAI) CO., LTD., priority 2023, published 2026):

Legend:
[1] = molecular target: T1, IKZF3 (Homo sapiens, UniProt Q96SW2+Q9UKT9); experiment: Western blot degradation of IKZF3 in hPBMCs (24 h); type: cell-based; settings: compounds at 50 nM and 500 nM
T1 construct: The supernatant was aspirated as the extracted total cell protein; endogenous in cells; host or cells: human peripheral blood mononuclear cells (hPBMCs)
T1 sequence (Q9UKT9 whole entry): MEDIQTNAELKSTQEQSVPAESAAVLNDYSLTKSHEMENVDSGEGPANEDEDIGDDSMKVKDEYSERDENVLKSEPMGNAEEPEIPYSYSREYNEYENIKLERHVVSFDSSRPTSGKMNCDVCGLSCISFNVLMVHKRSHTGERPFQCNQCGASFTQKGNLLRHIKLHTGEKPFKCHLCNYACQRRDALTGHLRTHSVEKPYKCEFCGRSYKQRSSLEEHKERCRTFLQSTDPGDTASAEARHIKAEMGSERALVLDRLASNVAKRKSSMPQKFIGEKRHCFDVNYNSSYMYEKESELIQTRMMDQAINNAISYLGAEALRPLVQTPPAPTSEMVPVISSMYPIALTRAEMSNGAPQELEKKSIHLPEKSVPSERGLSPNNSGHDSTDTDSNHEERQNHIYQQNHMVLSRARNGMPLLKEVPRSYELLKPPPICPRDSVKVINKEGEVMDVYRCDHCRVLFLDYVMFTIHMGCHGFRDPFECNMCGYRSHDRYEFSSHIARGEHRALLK
T1 sequence (Q96SW2 whole entry): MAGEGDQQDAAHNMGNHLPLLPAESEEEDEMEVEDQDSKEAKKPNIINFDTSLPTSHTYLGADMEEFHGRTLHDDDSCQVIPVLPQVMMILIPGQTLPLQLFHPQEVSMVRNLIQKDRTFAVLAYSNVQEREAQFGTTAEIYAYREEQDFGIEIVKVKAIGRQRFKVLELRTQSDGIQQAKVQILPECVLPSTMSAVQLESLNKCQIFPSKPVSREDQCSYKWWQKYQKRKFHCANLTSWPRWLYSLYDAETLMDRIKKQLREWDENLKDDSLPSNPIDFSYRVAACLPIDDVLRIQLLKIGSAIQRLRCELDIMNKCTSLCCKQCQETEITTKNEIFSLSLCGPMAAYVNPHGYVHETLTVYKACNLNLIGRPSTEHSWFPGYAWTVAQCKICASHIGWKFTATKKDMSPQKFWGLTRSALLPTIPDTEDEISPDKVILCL
T1 sequence (Q16531 whole entry partner): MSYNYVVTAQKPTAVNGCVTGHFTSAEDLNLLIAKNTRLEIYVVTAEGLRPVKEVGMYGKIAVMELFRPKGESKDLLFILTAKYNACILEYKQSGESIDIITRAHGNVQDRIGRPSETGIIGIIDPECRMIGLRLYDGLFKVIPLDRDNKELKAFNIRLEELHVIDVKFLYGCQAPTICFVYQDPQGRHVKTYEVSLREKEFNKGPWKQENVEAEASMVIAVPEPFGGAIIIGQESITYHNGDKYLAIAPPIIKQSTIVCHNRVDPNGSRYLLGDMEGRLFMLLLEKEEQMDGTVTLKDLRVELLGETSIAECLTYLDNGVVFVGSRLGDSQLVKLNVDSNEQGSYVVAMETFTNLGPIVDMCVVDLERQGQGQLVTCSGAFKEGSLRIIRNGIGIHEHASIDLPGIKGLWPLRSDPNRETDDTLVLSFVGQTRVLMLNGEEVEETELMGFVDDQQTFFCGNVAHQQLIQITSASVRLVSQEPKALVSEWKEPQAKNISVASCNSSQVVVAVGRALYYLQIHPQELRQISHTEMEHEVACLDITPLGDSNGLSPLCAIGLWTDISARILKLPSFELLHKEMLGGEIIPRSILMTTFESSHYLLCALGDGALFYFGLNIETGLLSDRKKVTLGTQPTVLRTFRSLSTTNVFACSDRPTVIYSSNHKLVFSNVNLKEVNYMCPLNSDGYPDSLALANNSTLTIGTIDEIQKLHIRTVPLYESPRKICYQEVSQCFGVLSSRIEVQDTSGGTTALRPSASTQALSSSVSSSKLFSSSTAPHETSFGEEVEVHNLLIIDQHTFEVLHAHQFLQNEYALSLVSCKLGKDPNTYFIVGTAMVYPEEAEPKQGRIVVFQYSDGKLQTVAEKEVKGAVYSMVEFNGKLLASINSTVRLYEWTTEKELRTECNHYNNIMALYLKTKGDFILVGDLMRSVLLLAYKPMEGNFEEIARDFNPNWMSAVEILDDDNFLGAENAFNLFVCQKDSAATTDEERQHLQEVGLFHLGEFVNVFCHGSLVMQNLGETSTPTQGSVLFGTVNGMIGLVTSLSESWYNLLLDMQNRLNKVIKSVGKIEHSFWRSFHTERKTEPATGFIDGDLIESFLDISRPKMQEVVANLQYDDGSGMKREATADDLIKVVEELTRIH
Method in brief: (§1)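 hPBMCs (1×10^6 cells/mL) were treated with compound at 50 nM and 500 nM for 24 h, lysed in RIPA with protease inhibitors and analysed by SDS-PAGE/Western blot. Band grayscale, normalised to internal control, gave protein remaining (%); DC50 estimated versus DMSO bands.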

[2] = molecular target: T2, IKZF1 (Homo sapiens, UniProt Q13422+Q96SW2); experiment: Western blot degradation of IKZF1 in hPBMCs (24 h); type: cell-based; settings: compounds at 50 nM and 500 nM
T2 construct: The supernatant was aspirated as the extracted total cell protein; endogenous in cells; host or cells: human peripheral blood mononuclear cells (hPBMCs)
T2 sequence (Q13422 whole entry): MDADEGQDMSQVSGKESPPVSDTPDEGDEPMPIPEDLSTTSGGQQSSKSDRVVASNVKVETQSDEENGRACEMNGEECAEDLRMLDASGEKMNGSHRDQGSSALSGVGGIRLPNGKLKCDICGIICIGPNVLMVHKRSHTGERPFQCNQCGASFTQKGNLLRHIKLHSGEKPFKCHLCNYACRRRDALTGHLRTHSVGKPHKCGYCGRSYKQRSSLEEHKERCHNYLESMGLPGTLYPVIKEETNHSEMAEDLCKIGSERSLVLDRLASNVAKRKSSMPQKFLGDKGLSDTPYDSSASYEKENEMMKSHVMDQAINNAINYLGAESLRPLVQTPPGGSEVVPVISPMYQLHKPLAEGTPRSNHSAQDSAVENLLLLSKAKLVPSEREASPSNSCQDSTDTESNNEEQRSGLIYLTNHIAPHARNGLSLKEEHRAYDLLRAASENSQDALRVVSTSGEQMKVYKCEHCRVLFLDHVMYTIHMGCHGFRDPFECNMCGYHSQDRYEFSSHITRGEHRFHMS
T2 sequence (Q96SW2 whole entry): as the sequence (Q96SW2 whole entry) above
T2 sequence (Q16531 whole entry partner): as the sequence (Q16531 whole entry partner) above
Method in brief: as §1

[3] = molecular target: T3, CK1α (Homo sapiens, UniProt P48729+Q96SW2); experiment: Western blot degradation of CK1α in hPBMCs (24 h); type: cell-based; settings: compounds at 50 nM and 500 nM
T3 construct: The supernatant was aspirated as the extracted total cell protein; endogenous in cells; host or cells: human peripheral blood mononuclear cells (hPBMCs)
T3 sequence (P48729 whole entry): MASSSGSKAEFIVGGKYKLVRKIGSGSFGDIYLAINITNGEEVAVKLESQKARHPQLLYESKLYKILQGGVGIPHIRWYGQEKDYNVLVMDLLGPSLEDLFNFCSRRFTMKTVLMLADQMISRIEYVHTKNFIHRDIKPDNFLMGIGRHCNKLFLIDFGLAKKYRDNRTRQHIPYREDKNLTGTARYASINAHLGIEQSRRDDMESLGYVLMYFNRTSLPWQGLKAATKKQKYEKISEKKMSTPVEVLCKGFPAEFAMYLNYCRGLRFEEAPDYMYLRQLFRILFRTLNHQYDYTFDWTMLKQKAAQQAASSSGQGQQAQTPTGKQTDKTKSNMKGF
T3 sequence (Q96SW2 whole entry): as the sequence (Q96SW2 whole entry) above
T3 sequence (Q16531 whole entry partner): as the sequence (Q16531 whole entry partner) above
Method in brief: as §1

[4] = test system: MV-4-11 cells; experiment: Inhibition of proliferation of myeloid monocytic leukemia cells MV-4-11 (cell viability assay, 96 h); type: cell-based, human; settings: read-out: inhibitory activity (IC50) against tumor cells proliferation, MV-4-11
Description: (§2) The tumor cells used herein were cultured in a cell culture medium listed in table 2 at 37 °C in an incubator with 5% CO2. Prior to experimentation, all cell lines used were correctly identified by STR profiling, and tested negative for Mycoplasma contamination using a Mycoplasma detection kit through routine screenings.
(§3) The IC50 values of the compounds of the present disclosure (including the compounds in Table 1, and Examples 1-498) were determined using the CellTiter-Meiluncell Luminescent Cell Viability Assay Kit from Dalian Meilun Biotech Co., Ltd. The detailed procedure is as follows: Tumor cells were seeded in 96-well cell culture plates at the densities specified in Table 3. On the following day, the test compounds of the present disclosure were subjected to serial dilution. […] Subsequently, 0.5 μL of the test compound dilution was transferred into the 96-well plate containing the cells, with each well containing 100 μL of cell culture medium. […] Into the 96-well plate, the diluted test compounds and corresponding detection reagents were added, resulting in final test compound concentrations of 500 nM and 10 nM, respectively. The experimental procedure is described below using the diluted 2 μM test compound as an example.
(§4) 0.5 μL of the aforementioned diluted compound of the present disclosure (including the compounds in Table 1, and Examples 1-498) was added to the seeded cells in 100 μL of medium, yielding a final test compound concentration of 10 nM. After the cells were treated with the compounds of the present disclosure for a specified period, the cell viability assay reagent was added to the culture medium according to the kit's instructions to determine cell viability. […] All controls were treated using the same procedure as the compounds of the present disclosure. The growth inhibition curves for the compounds of the present disclosure were plotted using Prism GraphPad software, and the IC50 values were calculated therefrom.

[5] = molecular target: T4, IKZF2 (Homo sapiens, UniProt Q96SW2+Q9UKS7); experiment: Western blot degradation of IKZF2 in hPBMCs (24 h); type: cell-based; settings: compounds at 50 nM and 500 nM
T4 construct: The supernatant was aspirated as the extracted total cell protein; endogenous in cells; host or cells: human peripheral blood mononuclear cells (hPBMCs)
Method in brief: as §1

[6] = molecular target: T5, WEE1 (Homo sapiens, UniProt P30291+Q96SW2); experiment: Western blot degradation of WEE1 in hPBMCs (24 h); type: cell-based; settings: compounds at 50 nM and 500 nM
T5 construct: The supernatant was aspirated as the extracted total cell protein; endogenous in cells; host or cells: human peripheral blood mononuclear cells (hPBMCs)
T5 sequence (P30291 whole entry): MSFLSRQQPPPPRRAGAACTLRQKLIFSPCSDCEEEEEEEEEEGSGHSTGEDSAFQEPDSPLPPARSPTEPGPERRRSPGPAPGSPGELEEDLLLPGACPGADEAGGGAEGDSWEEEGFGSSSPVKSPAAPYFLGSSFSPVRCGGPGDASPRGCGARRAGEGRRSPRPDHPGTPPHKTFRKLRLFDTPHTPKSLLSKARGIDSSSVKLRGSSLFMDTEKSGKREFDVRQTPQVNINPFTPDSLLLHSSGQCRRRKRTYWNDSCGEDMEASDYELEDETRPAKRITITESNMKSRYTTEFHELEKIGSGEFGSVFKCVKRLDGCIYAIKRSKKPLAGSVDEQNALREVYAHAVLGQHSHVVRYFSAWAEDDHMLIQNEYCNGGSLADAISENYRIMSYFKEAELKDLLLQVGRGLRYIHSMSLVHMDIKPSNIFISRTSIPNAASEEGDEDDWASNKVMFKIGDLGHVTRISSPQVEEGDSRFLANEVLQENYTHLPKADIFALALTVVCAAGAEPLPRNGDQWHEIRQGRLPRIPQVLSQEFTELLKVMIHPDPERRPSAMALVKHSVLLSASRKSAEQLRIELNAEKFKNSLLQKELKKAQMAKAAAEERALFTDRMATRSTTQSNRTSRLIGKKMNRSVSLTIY
T5 sequence (Q96SW2 whole entry): as the sequence (Q96SW2 whole entry) above
T5 sequence (Q16531 whole entry partner): as the sequence (Q16531 whole entry partner) above
Method in brief: as §1

[7] = molecular target: T6, GSPT1 (Homo sapiens, UniProt P15170+Q96SW2); experiment: Western blot degradation of GSPT1 in hPBMCs (24 h); type: cell-based; settings: compounds at 50 nM and 500 nM
T6 construct: The supernatant was aspirated as the extracted total cell protein; endogenous in cells; host or cells: human peripheral blood mononuclear cells (hPBMCs)
T6 sequence (P15170 whole entry): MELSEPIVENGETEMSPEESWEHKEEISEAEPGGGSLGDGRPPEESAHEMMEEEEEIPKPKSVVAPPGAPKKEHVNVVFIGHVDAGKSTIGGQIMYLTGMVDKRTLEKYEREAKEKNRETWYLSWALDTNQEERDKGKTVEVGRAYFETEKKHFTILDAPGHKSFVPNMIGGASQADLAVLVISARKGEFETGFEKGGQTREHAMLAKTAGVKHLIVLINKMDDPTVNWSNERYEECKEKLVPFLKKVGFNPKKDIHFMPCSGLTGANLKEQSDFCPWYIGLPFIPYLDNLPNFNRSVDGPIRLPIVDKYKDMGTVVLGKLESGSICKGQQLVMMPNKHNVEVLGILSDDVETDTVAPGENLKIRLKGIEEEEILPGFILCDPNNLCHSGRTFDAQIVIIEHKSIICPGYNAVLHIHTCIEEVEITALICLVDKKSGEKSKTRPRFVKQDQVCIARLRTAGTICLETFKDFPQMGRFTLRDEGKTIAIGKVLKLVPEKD
T6 sequence (Q96SW2 whole entry): as the sequence (Q96SW2 whole entry) above
T6 sequence (Q16531 whole entry partner): as the sequence (Q16531 whole entry partner) above
Method in brief: as §1

[8] = test system: Jurkat cells; experiment: Inhibition of proliferation of T lymphocytic leukemia cells Jurkat (cell viability assay, 96 h); type: cell-based, human; settings: read-out: inhibitory activity (IC50) against tumor cells proliferation, Jurkat
Description: as §2, §3, §4

[9] = test system: MM.1S cells; experiment: Inhibition of proliferation of multiple myeloma cells MM.1S (cell viability assay, 96 h); type: cell-based, human; settings: read-out: inhibitory activity (IC50) against tumor cells proliferation, MM.1S

Row | Compound | IKZF3 substrate protein remaining % [1] | IKZF1 substrate protein remaining % [2] | CK1α substrate protein remaining % [3] | IC50 [4] | IKZF2 substrate protein remaining % [5] | WEE1 substrate protein remaining % [6] | GSPT1 substrate protein remaining % [7] | IC50 [8] | IC50 [9]
1 | O=C1CCN(N2Cc3cc(CN4CCN(c5ccccc5)CC4)ccc3C2=O)C(=O)N1 [GT-06696, 1-(1-oxo-5-((4-phenylpiperazin-1-yl)methyl)isoindolin-2-yl)dihydropyrimidine-2,4(1H,3H)-dione] | B (80%< substrate protein remaining % ≤100%) | B (80%< substrate protein remaining % ≤100%) | B (80%< substrate protein remaining % ≤100%) | 100 to 300 nM | B (80%< substrate protein remaining % ≤100%) | B (80%< substrate protein remaining % ≤100%) | A (0% ≤ substrate protein remaining % ≤80%) | – | –
2 | O=C1CCN(N2Cc3cc(CN4CCN(c5cccc(Br)c5)CC4)ccc3C2=O)C(=O)N1 [GT-06698, 1-(5-((4-(3-bromophenyl)piperazin-1-yl)methyl)-1-oxoisoindolin-2-yl)dihydropyrimidine-2,4(1H,3H)-dione] | B (80%< substrate protein remaining % ≤100%) | B (80%< substrate protein remaining % ≤100%) | B (80%< substrate protein remaining % ≤100%) | 100 to 300 nM | B (80%< substrate protein remaining % ≤100%) | B (80%< substrate protein remaining % ≤100%) | A (0% ≤ substrate protein remaining % ≤80%) | – | –
3 | COc1cccc(N2CCN(Cc3ccc4c(c3)CN(N3CCC(=O)NC3=O)C4=O)CC2)c1 [GT-06699, 1-(5-((4-(3-methoxyphenyl)piperazin-1-yl)methyl)-1-oxoisoindolin-2-yl)dihydropyrimidine-2,4(1H,3H)-dione] | B (80%< substrate protein remaining % ≤100%) | B (80%< substrate protein remaining % ≤100%) | B (80%< substrate protein remaining % ≤100%) | 100 to 300 nM | B (80%< substrate protein remaining % ≤100%) | B (80%< substrate protein remaining % ≤100%) | A (0% ≤ substrate protein remaining % ≤80%) | – | –
4 | O=C1CCN(N2Cc3cc(CN4CCN(c5ccc(C(F)(F)F)cc5)CC4)ccc3C2=O)C(=O)N1 [GT-06700, 1-(1-oxo-5-((4-(4-(trifluoromethyl)phenyl)piperazin-1-yl)methyl)isoindolin-2-yl)dihydropyrimidine-2,4(1H,3H)-dione] | – | – | – | 50 to 100 nM | – | – | – | – | –
5 | O=C1CCN(N2Cc3cc(CN4CCN(c5ccc(F)cc5)CC4)ccc3C2=O)C(=O)N1 [GT-06702, 1-(5-((4-(4-fluorophenyl)piperazin-1-yl)methyl)-1-oxoisoindolin-2-yl)dihydropyrimidine-2,4(1H,3H)-dione] | B (80%< substrate protein remaining % ≤100%) | B (80%< substrate protein remaining % ≤100%) | A (0% ≤ substrate protein remaining % ≤80%) | 500 to 1000 nM | B (80%< substrate protein remaining % ≤100%) | B (80%< substrate protein remaining % ≤100%) | A (0% ≤ substrate protein remaining % ≤80%) | – | –
6 | O=C1CCN(N2Cc3cc(CN4CCN(c5ccccc5Cl)CC4)ccc3C2=O)C(=O)N1 [GT-06703, 1-(5-((4-(2-chlorophenyl)piperazin-1-yl)methyl)-1-oxoisoindolin-2-yl)dihydropyrimidine-2,4(1H,3H)-dione] | B (80%< substrate protein remaining % ≤100%) | B (80%< substrate protein remaining % ≤100%) | A (0% ≤ substrate protein remaining % ≤80%) | 500 to 1000 nM | B (80%< substrate protein remaining % ≤100%) | B (80%< substrate protein remaining % ≤100%) | A (0% ≤ substrate protein remaining % ≤80%) | – | –
7 | O=C1CCN(N2Cc3cc(CN4CCN(c5ccc(Cl)cc5)CC4)ccc3C2=O)C(=O)N1 [GT-06765, 1-(5-((4-(4-chlorophenyl)piperazin-1-yl)methyl)-1-oxoisoindolin-2-yl)dihydropyrimidine-2,4(1H,3H)-dione] | B (80%< substrate protein remaining % ≤100%) | B (80%< substrate protein remaining % ≤100%) | A (0% ≤ substrate protein remaining % ≤80%) | 500 to 1000 nM | B (80%< substrate protein remaining % ≤100%) | B (80%< substrate protein remaining % ≤100%) | B (80%< substrate protein remaining % ≤100%) | – | –
8 | O=C1CCN(N2Cc3cc(CN4CC=C(c5c[nH]c6ncccc56)CC4)ccc3C2=O)C(=O)N1 [GT-07577, 1-(5-((4-(1H-pyrrolo[2,3-b]pyridin-3-yl)-3,6-dihydropyridin-1 (2H)-yl)methyl)-1-oxoisoindolin-2-yl)dihydropyrimidine-2,4(1H,3H)-dione] | A (0% ≤ substrate protein remaining % ≤80%) | A (0% ≤ substrate protein remaining % ≤80%) | A (0% ≤ substrate protein remaining % ≤80%) | – | B (80%< substrate protein remaining % ≤100%) | A (0% ≤ substrate protein remaining % ≤80%) | A (0% ≤ substrate protein remaining % ≤80%) | 500 to 1000 nM | 300 to 500 nM
9 | O=C1CCN(N2Cc3cc(CN4CC=C(c5n[nH]c6cc(F)ccc56)CC4)ccc3C2=O)C(=O)N1 [GT-07578, 1-(5-((4-(6-fluoro-1H-indazol-3-yl)-3,6-dihydropyridin-1(2H)-yl)methyl)-1-oxoisoindolin-2-yl)dihydropyrimidine-2,4(1H,3H)-dione] | B (80%< substrate protein remaining % ≤100%) | A (0% ≤ substrate protein remaining % ≤80%) | B (80%< substrate protein remaining % ≤100%) | – | A (0% ≤ substrate protein remaining % ≤80%) | A (0% ≤ substrate protein remaining % ≤80%) | A (0% ≤ substrate protein remaining % ≤80%) | 50 to 100 nM | 50 to 100 nM
10 | O=C1CCN(N2Cc3cc(CN4CC=C(c5cccc6c(F)cccc56)CC4)ccc3C2=O)C(=O)N1 [GT-07590, 1-(5-((4-(5-fluoronaphthalen-1-yl)-3,6-dihydropyridin-1(2H)-yl)methyl)-1-oxoisoindolin-2-yl)dihydropyrimidine-2,4(1H,3H)-dione] | A (0% ≤ substrate protein remaining % ≤80%) | A (0% ≤ substrate protein remaining % ≤80%) | B (80%< substrate protein remaining % ≤100%) | – | A (0% ≤ substrate protein remaining % ≤80%) | A (0% ≤ substrate protein remaining % ≤80%) | A (0% ≤ substrate protein remaining % ≤80%) | 50 to 100 nM | 10 to 50 nM
